# Test results reported in US11109592B2, “Selective weed control methods” (Corteva Agriscience LLC, priority 2013, dated 2021).
# Where two headings read alike, the source gives them in different places.
# Experiments:
# [1] = system: spring kale (Brassica oleracea); experiment: Field trial, crop injury to spring kale, post-emergence; format: in vivo; conditions: B12-B16 crop stage
# Text: Data from the trials on spring kale (Brassica oleracea) are summarized Table 4.
# [2] = system: spring sorghum (Sorghum vulgare); experiment: Field trial, crop injury to spring sorghum, post-emergence; conditions: B17-B22 crop stage
# [3] = system: Juncea canola (Brassica juncea); conditions: for Percent (%) Crop Injury (Mean Value): B12-B14 crop stage; for injury to Juncea canola, on average did not exceed: five field trials
# [4] = system: common lambsquarters (Chenopodium album L.); experiment: Field trial in sugar beet, visual control of common lambsquarters; format: in vivo; conditions: 36 days following last application
# Text: (§1) As used herein, selective post-emergent control of undesirable vegetation means preventing, reducing, killing, or otherwise adversely modifying the development of the undesirable vegetation in the presence of crop plants with limited adverse effect on the crop plants. For example, a broadleaf weed control of 80% (rated visually) with crop injury of less than or equal to 20%, rated visually, would constitute selective control. In some embodiments the adverse effect on crop plants is limited to less than 10% visually rated crop injury. […] Visual weed control is a composite rating accounting for reductions in pest plant biomass and/or stand reduction.
# (§2) Treatments 4 and 5 were split applications at the two indicated growth stages.
# [5] = system: yellow mustard (Sinapis alba); experiment: Field trial, crop injury to and yield of yellow mustard, post-emergence; conditions: B14-B15 crop stage
# [6] = system: spring sunflower (Helianthus annuus); experiment: Field trial, crop injury to spring sunflower, post-emergence; conditions: B12-B14 crop stage, Australia
# [7] = system: spring rutabaga (Brassica napus); conditions: for Percent (%) Crop Injury (Mean Value): B12-B14 crop stage; for injury to rutabaga, on average did not exceed: three field trials
# [8] = system: wild buckwheat (Polygonum convolvulus L.); experiment: Field trial in sugar beet, visual control of wild buckwheat; format: in vivo; conditions: 36 days following last application
# Text: as §1, §2
# [9] = system: Winfred forage brassica (Brassica rapa × oleracea); experiment: Field trial, crop injury to Winfred forage brassica, post-emergence; format: in vivo; conditions: B14-B16 crop stage, Australia
# [10] = system: spring turnip (Brassica rapa); conditions: for Percent (%) Crop Injury (Mean Value): B12-B16 crop stage; for injury to turnip, on average did not exceed: three field trials
# [11] = system: sunflowers, sorghum, yellow mustard, Brassicaceae-family crops, and sugar beets; experiment: Overall crop safety, post-emergence application; format: in vivo; conditions: post-emergence application rates of ≤10 g ae/ha
# [12] = system: certain members of the Amaranthaceae, Asteraceae, Lamiaceae, Rubiaceae, Papaveraceae and Brassicaceae families; experiment: Herbicidal activity (LD90) on plant families; format: in vivo; conditions: grams acid equivalent per hectare
# [13] = system: broadleaf weeds including cleavers (Galium aparine), chickweed (Stellaria media), pigweed (Amaranthus spp.), lamb's-quarters (Chenopodium album) and others; experiment: Efficacy on commercially relevant broadleaf weeds; format: in vivo; conditions: application rate of 2.5 to 10 g ae/ha
# [14] = rate 2.5 (g ae/ha), 1 week after application
# [15] = rate 2.5, 3-5 weeks after application
# [16] = rate 5, 1 week after application
# [17] = rate 5, 3-5 weeks after application
# [18] = rate 10, 1 week after application
# [19] = rate 10, 3-5 weeks after application
# [20] = rate 20, 1 week after application
# [21] = rate 2.5 (g ae/ha), 3-5 weeks after application
# [22] = rate 2.5, 6-10 weeks after application
# [23] = rate 5, 6-10 weeks after application
# [24] = rate 10, 6-10 weeks after application
# [25] = rate 20, 3-5 weeks after application
# [26] = rate 20, 6-10 weeks after application
# [27] = treatment 1: 1.0 g ae/ha at BEAVA stage B12-B16
# [28] = treatment 2: 2.0 g ae/ha at BEAVA stage B12-B16
# [29] = treatment 3: 3.0 g ae/ha at BEAVA stage B12-B16
# [30] = treatment 4: split application 0.5 g ae/ha at B10-B12 and 0.5 g ae/ha at B12-B16
# [31] = treatment 5: split application 1.0 g ae/ha at B10-B12 and 1.0 g ae/ha at B12-B16
structure (smiles),measurement,setting,value
COC(=O)c1nc(-c2ccc(Cl)c(OC)c2F)cc(N)c1Cl [4-Amino-3-chloro-6-(4-chloro-2-fluoro-3-methoxyphenyl)pyridine-2-carboxylic acid methyl ester],Percent (%) Crop Injury (Mean Value),[1]; [14],2.5%
same,Percent (%) Crop Injury (Mean Value),[1]; [15],0%
same,Percent (%) Crop Injury (Mean Value),[1]; [16],1.3%
same,Percent (%) Crop Injury (Mean Value),[1]; [17],1.3%
same,Percent (%) Crop Injury (Mean Value),[1]; [18],2.5%
same,Percent (%) Crop Injury (Mean Value),[1]; [19],3.8%
same,Percent (%) Crop Injury (Mean Value),[1]; [20],15%
same,Percent (%) Crop Injury (Mean Value),[2]; [21],8.3%
same,Percent (%) Crop Injury (Mean Value),[2]; [22],13.3%
same,Percent (%) Crop Injury (Mean Value),[2]; [17],11.7%
same,Percent (%) Crop Injury (Mean Value),[2]; [23],18.3%
same,Percent (%) Crop Injury (Mean Value),[2]; [19],18.3%
same,Percent (%) Crop Injury (Mean Value),[2]; [24],15%
same,Percent (%) Crop Injury (Mean Value),[2]; [25],13.3%
same,Percent (%) Crop Injury (Mean Value),[2]; [26],15%
same,Percent (%) Crop Injury (Mean Value),[3]; [14],2.5%
same,Percent (%) Crop Injury (Mean Value),[3]; [15],7.5%
same,Percent (%) Crop Injury (Mean Value),[3]; [22],5%
same,Percent (%) Crop Injury (Mean Value),[3]; [16],3.8%
same,Percent (%) Crop Injury (Mean Value),[3]; [17],10.5%
same,Percent (%) Crop Injury (Mean Value),[3]; [23],11.3%
same,Percent (%) Crop Injury (Mean Value),[3]; [18],3.8%
same,Percent (%) Crop Injury (Mean Value),[3]; [19],5.5%
same,Percent (%) Crop Injury (Mean Value),[3]; [24],3.8%
same,Percent (%) Crop Injury (Mean Value),[3]; [20],30%
same,Percent (%) Crop Injury (Mean Value),[3]; [25],13.8%
same,Percent (%) Crop Injury (Mean Value),[3]; [26],0%
same,Percent (%) Visual Control CHEAL,[4]; [27],35%
same,Percent (%) Visual Control CHEAL,[4]; [28],98%
same,Percent (%) Visual Control CHEAL,[4]; [29],95.8%
same,Percent (%) Visual Control CHEAL,[4]; [30],30%
same,Percent (%) Visual Control CHEAL,[4]; [31],96.8%
same,Percent (%) Crop Injury (Mean Value of Four Observations),[5]; [14],8.5%
same,Percent (%) Crop Injury (Mean Value of Four Observations),"[5]; rate 2.5, 2 weeks after application",4.8%
same,Percent (%) Crop Injury (Mean Value of Four Observations),[5]; [15],4.5%
same,Percent (%) Crop Injury (Mean Value of Four Observations),[5]; [16],14.3%
same,Percent (%) Crop Injury (Mean Value of Four Observations),"[5]; rate 5, 2 weeks after application",10%
same,Percent (%) Crop Injury (Mean Value of Four Observations),[5]; [17],7.5%
same,Percent (%) Crop Injury (Mean Value of Four Observations),[5]; [18],21.3%
same,Percent (%) Crop Injury (Mean Value of Four Observations),"[5]; rate 10, 2 weeks after application",25%
same,Percent (%) Crop Injury (Mean Value of Four Observations),[5]; [19],16.3%
same,Percent (%) Crop Injury (Mean Value of Four Observations),[5]; [20],23.8%
same,Percent (%) Crop Injury (Mean Value of Four Observations),"[5]; rate 20, 2 weeks after application",35%
same,Percent (%) Crop Injury (Mean Value of Four Observations),[5]; [25],25%
same,Percent (%) Crop Injury (Mean Value),[6]; [21],6.7%
same,Percent (%) Crop Injury (Mean Value),[6]; [22],6.7%
same,Percent (%) Crop Injury (Mean Value),[6]; [17],13.3%
same,Percent (%) Crop Injury (Mean Value),[6]; [23],11.7%
same,Percent (%) Crop Injury (Mean Value),[6]; [19],15%
same,Percent (%) Crop Injury (Mean Value),[6]; [24],8.3%
same,Percent (%) Crop Injury (Mean Value),[6]; [25],22.3%
same,Percent (%) Crop Injury (Mean Value),[6]; [26],6.7%
same,Percent (%) Crop Injury (Mean Value),[7]; [14],6.3%
same,Percent (%) Crop Injury (Mean Value),[7]; [15],3.8%
same,Percent (%) Crop Injury (Mean Value),[7]; [16],10%
same,Percent (%) Crop Injury (Mean Value),[7]; [17],3.3%
same,Percent (%) Crop Injury (Mean Value),[7]; [18],15%
same,Percent (%) Crop Injury (Mean Value),[7]; [19],7.5%
same,Percent (%) Crop Injury (Mean Value),[7]; [20],27.5%
same,Percent (%) Crop Injury (Mean Value),[7]; [25],15%
same,Percent (%) Visual Control POLCO,[8]; [27],5%
same,Percent (%) Visual Control POLCO,[8]; [28],22.5%
same,Percent (%) Visual Control POLCO,[8]; [29],60%
same,Percent (%) Visual Control POLCO,[8]; [30],20%
same,Percent (%) Visual Control POLCO,[8]; [31],35%
same,Percent (%) Crop Injury (Mean Value),[9]; [22],7.5%
same,Percent (%) Crop Injury (Mean Value),[9]; [17],9.2%
same,Percent (%) Crop Injury (Mean Value),[9]; [23],7.5%
same,Percent (%) Crop Injury (Mean Value),[9]; [19],8.8%
same,Percent (%) Crop Injury (Mean Value),[9]; [24],0%
same,Percent (%) Crop Injury (Mean Value),[9]; [25],11.3%
same,Percent (%) Crop Injury (Mean Value),[10]; [14],2.5%
same,Percent (%) Crop Injury (Mean Value),[10]; [15],2.5%
same,Percent (%) Crop Injury (Mean Value),[10]; [16],5%
same,Percent (%) Crop Injury (Mean Value),[10]; [17],1.3%
same,Percent (%) Crop Injury (Mean Value),[10]; [18],7.5%
same,Percent (%) Crop Injury (Mean Value),[10]; [19],7.5%
same,Percent (%) Crop Injury (Mean Value),[10]; [25],7.5%
"COc1c(Cl)ccc(-c2cc(N)c(Cl)c(C(=O)O)n2)c1F [Compound I, 4-amino-3-chloro-6-(4-chloro-2-fluoro-3-methoxyphenyl)pyridine-2-carboxylic acid]","injury to Juncea canola, on average did not exceed",[3]; 2.5 g ae/ha,≤ 7.5%
same,"injury to Juncea canola, on average did not exceed",[3]; 5 g ae/ha,≤ 11.3%
same,"injury to Juncea canola, on average did not exceed",[3]; 10 g ae/ha,≤ 5.5%
same,crop injury,[11],little to no crop injury
same,LD90,[12],≤ 10 g ae/ha
same,"injury to rutabaga, on average did not exceed",[7]; 2.5 g ae/ha,≤ 6.3%
same,"injury to rutabaga, on average did not exceed",[7]; 5 g ae/ha,≤ 10%
same,"injury to rutabaga, on average did not exceed",[7]; 10 g ae/ha,≤ 15%
same,"injury to turnip, on average did not exceed",[10]; 2.5 g ae/ha,≤ 2.5%
same,"injury to turnip, on average did not exceed",[10]; 5 g ae/ha,≤ 5%
same,"injury to turnip, on average did not exceed",[10]; 10 g ae/ha,≤ 7.5%
same,efficacy on commercially relevant broadleaf weeds,[13],highly efficacious
